In brackets after ≈: the same amount, converted by molar mass. Like-named read-outs stand apart in the source and are kept apart here. Some results are limits rather than exact numbers.

Data set [1] deals with Acyclovir-resistant HSV-1 (HSV-AR). Put plainly: microbe, parasite or virus in culture. In kind it is cell-based. To be noted: Human alphaherpesvirus 1, Vero, read-out: EC50 HSV-AR. As for the experimental part: (§1) African green monkey kidney cells (Vero, ATCC CCL-81) and human epithelial carcinoma cells (HEp-2, ATCC CCL-23 and A549, ATCC CCL-185) were maintained in Dulbecco’s modified Eagle’s medium (DMEM), modified Eagle’s medium (MEM) and RPMI-1640 medium, respectively, supplemented with 10% fetal bovine serum (Gibco), 100 units/mL penicillin, and 100 μg/mL streptomycin. All the cell lines were cultured at 37°C with 5% CO2. HSV-1F (ATCC VR-733) and HSV-2G (ATCC VR-734) stocks were propagated in Vero cells, aliquoted and stored at -80°C. ACV-resistant HSV-1 was generated in our previous study.
(§2) 1X 10^6 Vero cells were seeded onto 6-well culture plates for 24 hours and infected with 100 pfu/well virus at 37°C for 1 hour. […] After 3 days, the cells were fixed with 3.7% formaldehyde and stained with crystal violet. The plaques were counted.

For data set [2], the system named is HSV-2. Nature of the data set: Plaque reduction assay. It counts as cell-based. To be noted: for EC50: read-out: EC50 HSV-2. As for the experimental part:
as §1, §2
A general note: Plaques are areas of infected cells; plaque reduction assays count them against a control.

The subject of data set [3] is HSV-1. Put plainly: Plaque reduction assay. It counts as cell-based. To be noted: for EC50: read-out: EC50 HSV-1. As for the experimental part:
as §1, §2

Data set [4] is described as follows: MTT cytotoxicity assay. In kind it is cell-based, African green monkey. To be noted: African green monkey. As for the experimental part:
(§3) All the cell lines were cultured at 37°C with 5% CO2. […] ACV-resistant HSV-1 was generated in our previous study.
(§4) The cells were washed with PBS, added with 0.1 mg/mL MTT reagent [3-(4,5-dimethylthiazol-2-yl)-2,5-diphenyl tetrazolium bromide; Sigma] and incubated at 37°C for 5 hours. After incubation, MTT reagent was removed and DMSO was added to each well. The absorbance was then determined by ELISA reader (SpectraMAX 340, Molecular Devices) at the wavelength of 550 nm.
For orientation: Tetrazolium assays rely on reduction of a dye to a coloured formazan, in cell work by metabolically active cells.

The subject of data set [5] is HSV-1. Nature of the data set: Virus binding to Vero cells, Western blot of cell-bound virus gD. In kind it is cell-based. To be noted: 1 m.o.i., 4°C.
Data set [6] concerns NF-κB. Nature of the data set: NF-κB translocation analysis by Western blot of nuclear fractions. It counts as cell-based. As to conditions: HSV-1 infection, nuclear fraction at 3 h.p.i. The source says:
During HSV infection, there are two waves of NF-κB activation. The first-wave of NF-κB activation could enhance ICP0 transcription via binding onto viral ICP0 promoter while the second-wave of NF-κB activation could prevent host cells from apoptosis. […] The nuclear fractions were extracted and applied to NF-κB translocation analysis by Western blot assay. […] After transfection, luciferase activity of pGL-ICP0 Wt transfected cells increased up to 3,000-fold compared with the vector control, pGL, in HSV-1 infection. […] Although it is well known the expression of ICP0 is regulated by NF-κB, the exact NF-κB binding site on ICP0 promoter is not identified yet. […] Only one NF-κB binding site was predicted within the HSV-1 ICP0 promoter. To determine whether the HCWEs-mediated ICP0 suppression was NF-κB-dependent, the predicted NF-κB binding site within pGL-ICP0 Wt was mutated by PCR-based mutagenesis and the resulting plasmid was named as pGL-ICP0 Mut. […] The results implied that HSV-1 ICP0 promoter activity was at least partly regulated by NF-κB.
On the technique in general: In western blotting, separated proteins are transferred to a membrane and probed.

Data set [7] has as its system HSV-1. Nature of the data set: Virus pre-treatment assay (plaque assay). To be noted: 100 pfu HSV-1 pretreated, Vero cells, Fig. 9A. It counts as cell-based. As for the experimental part:
After incubation, HCWEs-pretreated cells were washed with PBS and then infected with 100 pfu HSV. The inhibitory activities were analyzed by plaque assay. […] After 3 hours of incubation, 1X10^6 Vero cells were infected with HCWEs-pretreated virus and then analyzed by plaque assay.

Data set [8] deals with Vero cells. Put plainly: MTT cytotoxicity assay. It counts as cell-based, African green monkey. As to conditions: Vero cells, MTT. As for the experimental part: as §3, §4
[9] abbreviates: Human alphaherpesvirus 2, Vero cells.
Setting [10] is: Human alphaherpesvirus 1, Vero cells.
Setting [11] is: Vero cells, MTT, read-out: CC50.

The term EC50 denotes the concentration at which the effect is half-maximal. What is called CC50 is the concentration at which the toxic effect on the cells reaches its halfway point. As for `Nc1nc2c(ncn2COCCO)c(=O)[nH]1` [Acyclovir, acyclovir, reference compound], the values for the EC50 in data set [1], in data set [2] (setting [9]) and in data set [3] (setting [10]) were 14 µg/mL (≈ 62.3 µM), 0.82 µg/mL (≈ 3.64 µM) and 0.74 µg/mL (≈ 3.29 µM), respectively. Further, the CC50 at 3 days in data set [4] (setting [11]) was more than 450 µg/mL.
In the case of `O=c1c(O)c(-c2ccc(O)c(O)c2)oc2cc(O)cc(O)c12` [Quercetin, quercetin], in data set [5], the “cell binding ability of HSV-1 (Western blot)” value (from here on “cell binding ability”) is on record as “inhibited the binding of HSV-1 onto host cells”. Further, in data set [6], the “HSV-induced NF-κB translocation / activation” value was “inhibited NF-κB activation”. Besides, the “inhibition of HSV-1 by pretreatment of virus with pure compound” value (“inhibition” for short) in data set [7] was “targeted virus particles directly and inhibited viral entry”. Further, the “SI HSV-2 (CC50/EC50)” value in data set [2] came to 6.94. The EC50 in data set [2] (setting [9]) is 70 µg/mL (≈ 232 µM); in data set [3] (setting [10]) it was 52.9 µg/mL (≈ 175 µM). In data set [3], the “SI HSV-1 (CC50/EC50)” value is given as 9.18. The cytotoxic concentration (CC50) at 3 days in data set [4] (setting [11]) stood at 486 µg/mL (≈ 1610 µM).
With `C[C@@H]1O[C@@H](Oc2c(-c3ccc(O)c(O)c3)oc3cc(O)cc(O)c3c2=O)[C@H](O)[C@H](O)[C@H]1O` [Quercitrin, quercitrin], the EC50 is more than 142 µg/mL in data set [2] (Human alphaherpesvirus 2, Vero) and more than 142 µg/mL in data set [3] (Human alphaherpesvirus 1, Vero). In addition, the cytotoxic concentration (CC50) at 3 days in data set [4] (setting [11]) came to 142 µg/mL (≈ 317 µM).
Regarding `O=c1c(O[C@@H]2O[C@H](CO)[C@@H](O)[C@H](O)[C@H]2O)c(-c2ccc(O)c(O)c2)oc2cc(O)cc(O)c12` [Isoquercitrin, isoquercitrin], the “cell binding ability” value in data set [5] is listed as “not”. Besides, in data set [6], the “HSV-induced NF-κB translocation / activation” value is “inhibited NF-κB activation”. Moreover, the “inhibition” value in data set [7] is recorded as “not”. Besides, the EC50 stood at 0.39 µg/mL (≈ 0.84 µM) in data set [2] (setting [9]) and 0.42 µg/mL (≈ 0.904 µM) in data set [3] (setting [10]). Further, the “SI HSV-1 (CC50/EC50)” value in data set [3] is more than 476.2. For the same compound, the cytotoxic concentration (CC50) at 3 days in data set [4] (setting [11]) is more than 200 µg/mL.
Turning to `O=C(/C=C/c1ccc(O)c(O)c1)O[C@@H]1C[C@](O)(C(=O)O)C[C@@H](O)[C@H]1O` [Chlorogenic acid, chlorogenic acid], the EC50 in data set [2] (setting [9]) and in data set [3] (setting [10]) was more than 1240 µg/mL throughout. Moreover, the CC50 at 3 days in data set [4] (setting [11]) was found to be 1240 µg/mL (≈ 3510 µM).
For `C[C@@H]1O[C@@H](OC[C@H]2O[C@@H](Oc3c(-c4ccc(O)c(O)c4)oc4cc(O)cc(O)c4c3=O)[C@H](O)[C@@H](O)[C@@H]2O)[C@H](O)[C@H](O)[C@H]1O` [Rutin, rutin], the “cell binding ability” value in data set [5] is “not”. The “inhibition” value in data set [7] is “not”. Further, the “SI HSV-2 (CC50/EC50)” value in data set [2] was 4.146. Further, the EC50 in data set [2] (setting [9]) came to 169 µg/mL (≈ 278 µM); in data set [3] (setting [10]), 188 µg/mL (≈ 307 µM). Also, the “SI HSV-1 (CC50/EC50)” value in data set [3] is 3.745. The compound also gave a 50% cytotoxic concentration (CC50) at 3 days in data set [4] of 702 µg/mL (≈ 1150 µM).
`O=c1c(O[C@@H]2O[C@H](CO)[C@H](O)[C@H](O)[C@H]2O)c(-c2ccc(O)c(O)c2)oc2cc(O)cc(O)c12` [Hyperin, hyperin]: in data set [2] (Vero cells), the “EC50 HSV-2” value was more than 500 µg/mL. Besides, in data set [3] (Vero cells), the “EC50 HSV-1” value was more than 500 µg/mL. The half-maximal cytotoxic concentration (CC50) in data set [8] was more than 500 µg/mL.

For the origin of these results see publication PMC4314066, “Houttuynia cordata Targets the Beginning Stage of Herpes Simplex Virus Infection” (PLoS ONE, 2015).
